Measured values reported in patent US9145354B2, “Pharmaceutical compounds” (priority 2011, dated 2015).
Where two headings read alike, the source gives them in different places.

Target: full length NS3/4a (Hepatitis C virus genotype 1b (isolate BK) (HCV), UniProt P26663)
Assay: NS3 Protease Assay (Example A), FRET-based
Format: biochemical
Procedure: The HCV NS3 protease functions have been extensively studied and are considered as potential targets for antiviral therapy: see for example the many references listed in the introductory section of this application. Therefore, the activity of the compounds of the invention as anti-HCV agents was assessed using a full length HCV NS3 protease.
The protease activity of the full length NS3/4a was measured using a FRET-based assay utilizing a peptide substrate derived from the NS4A/B cleavage site (Anaspec) and labelled at one end with a quencher (QXL520) and at the other with a fluorophore (5-FAMsp). NS3/4a (produced in-house by literature methods) was incubated with test compounds and peptide substrate in 50 mM Tris pH8, 20 mM DTT, 1% CHAPS, 10% glycerol and 5% DMSO. The reaction was followed by monitoring the change in fluorescence on a Molecular Devices Gemini plate reader for 30 minutes at room temperature. Initial rates were calculated from the progress curves using SoftMax Pro (Molecular Devices). IC50 values were then calculated from replicate curves using Prism GraphPad software.

[1] = HCV NS3 protease assay, full length NS3/4a, read-out: Assay A IC50 (μM) average
[2] = read-out: IC50 against the protease activity of the full length NS3/4a
[3] = stated as IC50 less than 30 μM or at least 40% inhibition at a concentration of 100 μM, read-out: IC50 against the protease activity of the full length NS3/4a

Chain of full length NS3/4a (P26663 1027-1657): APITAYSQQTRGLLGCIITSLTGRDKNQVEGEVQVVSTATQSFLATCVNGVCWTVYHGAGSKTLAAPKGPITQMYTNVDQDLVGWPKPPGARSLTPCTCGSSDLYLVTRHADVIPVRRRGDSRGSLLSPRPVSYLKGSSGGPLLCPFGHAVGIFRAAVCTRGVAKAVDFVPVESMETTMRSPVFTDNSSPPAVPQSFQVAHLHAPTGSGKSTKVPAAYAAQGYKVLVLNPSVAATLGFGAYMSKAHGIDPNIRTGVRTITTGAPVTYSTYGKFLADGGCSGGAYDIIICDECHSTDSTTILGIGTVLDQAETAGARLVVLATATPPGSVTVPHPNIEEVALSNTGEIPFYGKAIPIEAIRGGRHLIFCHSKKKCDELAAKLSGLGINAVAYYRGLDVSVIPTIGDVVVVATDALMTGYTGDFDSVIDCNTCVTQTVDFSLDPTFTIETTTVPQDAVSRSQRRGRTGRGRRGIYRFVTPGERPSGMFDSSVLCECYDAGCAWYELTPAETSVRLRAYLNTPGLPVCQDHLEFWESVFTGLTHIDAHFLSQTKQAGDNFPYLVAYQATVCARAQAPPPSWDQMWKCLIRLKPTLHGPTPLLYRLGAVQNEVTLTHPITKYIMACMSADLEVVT

| Molecule | IC50 [1] [µM] | IC50 [2] [µM] | other results |
| --- | --- | --- | --- |
| CC[C@@H](N[C@H](C)CC(N)=O)c1ccc(Cl)c(C(=O)c2ccc(N)c(C#N)c2)c1F [Example 216, (3R)-3-{[(1R)-1-{3-[(4-amino-3-cyanophenyl)carbonyl]-4-chloro-2-fluorophenyl}propyl]amino} butanamide] | 0.48 | < 1 | – |
| (3S)-3-{[(1R)-1-{3-[(6- aminopyridazin-3- yl)carbonyl]-4-chloro-2- fluorophenyl}propyl]amino} butanamide [Example 232] | 0.99 | < 1 | – |
| C[C@H](CC(N)=O)N[C@H](CC1CC1)c1ccc(Cl)c(C(=O)c2ccc(N)nc2)c1F [Example 279, (3R)-3-{[(1R)-1-{3-[(6-aminopyridin-3-yl)carbonyl]-4-chloro-2-fluorophenyl}-2-cyclopropylethyl]amino}butanamide] | 0.39 | – | – |
| CC[C@@H](N[C@H](C)CC(N)=O)c1ccc(Cl)c(C(=O)c2cnc(N)cn2)c1F [Example 135, (3R)-3-{[(1R)-1-{3-[(5-aminopyrazin-2-yl)carbonyl]-4-chloro-2-fluorophenyl}propyl]-amino}butanamide] | 3.4 | 1 to 5 | – |
| C[C@H](CC(N)=O)N[C@@H](c1ccc(Cl)c(C(=O)c2ccc(F)cc2)c1F)C1CC1 [Example 120, (3R)-3-{[(R)-{4-chloro-2-fluoro-3-[(4-fluorophenyl)carbonyl]phenyl}(cyclopropyl)methyl]amino}butanamide] | 1.2 | 1 to 5 | – |
| CC[C@@H](N[C@H](C)CC(N)=O)c1ccc(Cl)c(C(=O)c2ccc(C#N)cc2)c1F [Example 92, (3R)-3-{[(1R)-1-{4-chloro-3-[(4-cyanophenyl)carbonyl]-2-fluorophenyl}propyl]amino}-butanamide] | 0.34 | – | – |
| CC[C@H](NC(=O)C1CCCNC1)c1ccc(Cl)c(C(=O)c2cccnc2)c1F (stereo partly drawn) [Example 294, N-[(1S)-1-{4-chloro-2-fluoro-3-[(pyridin-3-yl)carbonyl]phenyl}propyl]piperidine-3-carboxamide] | 0.41 | < 1 | – |
| CC[C@@H](N[C@H](C)CC(N)=O)c1ccc(OC)c(C(=O)c2ccc(N)c(C)c2)c1F [Example 274, (3R)-3-{[(1R)-1-{3-[(4-amino-3-methylphenyl)carbonyl]-2-fluoro-4-methoxyphenyl}propyl]amino}butanamide] | 0.56 | – | – |
| CC[C@H](N[C@@H](C)CC(N)=O)c1ccc(Cl)c(C(=O)c2ccccc2)c1F [Example 86, (3S)-3-{[(1S)-1-(3-benzoyl-4-chloro-2-fluorophenyl)-propyl]amino}butanamide] | 1 | 1 to 5 | – |
| C[C@H](CC(N)=O)N[C@@H](c1ccc(Cl)c(C(=O)c2ccc3c(c2)OCC(=O)N3)c1F)C1CC1 [Example 271, (3R)-3-{[(R)-{4-chloro-2-fluoro-3-[(3-oxo-3,4-dihydro-2H-1,4-benzoxazin-7-yl)carbonyl]phenyl}(cyclopropyl)methyl]-amino}butanamide] | 1.1 | 1 to 5 | – |
| Nc1ccc(C(=O)c2c(Cl)ccc([C@H](N)C3CC3)c2F)nc1 [Example 61, 6-({3-[(R)-amino(cyclopropyl)methyl]-6-chloro-2-fluorophenyl}carbonyl)pyridin-3-amine] | 1.2 | 1 to 5 | – |
| CC[C@@H](NCCn1cccn1)c1ccc(Cl)c(C(=O)c2cccnc2)c1F [Example 306, [(1R)-1-{4-chloro-2-fluoro-3-[(pyridin-3-yl)carbonyl]phenyl}propyl] [2-(1H-pyrazol-1-yl)ethyl] amine] | – | – | inhibition at 100 µM (@ 100 uM): 59%; IC50 [3]: < 30 µM |
| CC[C@@H](N[C@H](C)CC(N)=O)c1ccc(OC)c(C(=O)c2ccc(N)nc2)c1F [Example 253, (3R)-3-{[(1R)-1-{3-[(6-aminopyridin-3-yl)carbonyl]-2-fluoro-4-methoxyphenyl}propyl]amino}butanamide] | 1.4 | 1 to 5 | – |
| CC[C@@H](N[C@H](C)CC(N)=O)c1ccc(Cl)c(C(=O)c2ccc(N)c(C)c2)c1F [Example 260, (3R)-3-{[(1R)-1-{3-[(4-amino-3-methylphenyl)carbonyl]-4-chloro-2-fluorophenyl}propyl]amino}butanamide] | – | – | inhibition at 0.3 µM (@ 0.3 uM): 39% |
| CC[C@@H](N[C@H](C)CC(N)=O)c1ccc(Cl)c(C(=O)c2ccc(N)nn2)c1F [Example 233, (3R)-3-{[(1R)-1-{3-[(6-aminopyridazin-3-yl)carbonyl]-4-chloro-2-fluorophenyl}propyl]amino}butanamide] | – | – | inhibition at 10 µM (@ 10 uM): 40%; IC50 [3]: < 30 µM |
| CC[C@@H](N)c1ccc(Cl)c(C(=O)c2ccc(NC)nc2)c1F [Example 36, 5-({3-[(1R)-1-aminopropyl]-6-chloro-2-fluorophenyl}carbonyl)-N-methylpyridin-2-amine] | 0.71 | < 1 | – |
| CC[C@@H](N[C@H](C)CC(N)=O)c1ccc(Cl)c(C(=O)c2ccccn2)c1F [Example 105, (3R)-3-{[(1R)-1-{4-chloro-2-fluoro-3-[(pyridin-2-yl)carbonyl]phenyl}propyl]amino}butanamide] | – | – | inhibition at 30 µM (@ 30 uM): 57%; IC50 [3]: < 30 µM |
| CC[C@@H](N)c1ccc(OC)c(C(=O)c2cccc(F)c2)c1F [Example 198, (1R)-1-{2-fluoro-3-[(3-fluorophenyl)carbonyl]-4-methoxyphenyl}propan-1-amine] | 2.4 | 1 to 5 | – |
| Nc1cnc(C(=O)c2c(Cl)ccc([C@H](N)C3CC3)c2F)cn1 [Example 56, 5-({3-[(R)-amino(cyclopropyl)methyl]-6-chloro-2-fluorophenyl}carbonyl)pyrazin-2-amine] | 0.6 | < 1 | – |
| C=CC[C@@H](N)c1ccc(Cl)c(C(=O)c2ccc(N)nc2)c1F [Example 67, 5-({3-[(1R)-1-aminobut-3-en-1-yl]-6-chloro-2-fluorophenyl}carbonyl)pyridin-2-amine] | 0.37 | – | – |
| [2H]C([2H])([2H])C([2H])([2H])[C@H](N)c1ccc(Cl)c(C(=O)c2ccccc2)c1F [Example 24, (1S)-1-(3-benzoyl-4-chloro-2-fluorophenyl)(2,2,3,3,3-D)propan-1-amine] | 0.075 | < 1 | – |
| CC[C@@H](N[C@H](C)CC(N)=O)c1ccc(Cl)c(C(=O)c2ccccc2)c1F [Example 83, (3R)-3-{[(1R)-1-(3-benzoyl-4-chloro-2-fluorophenyl)propyl]-amino}butanamide] | 0.5 | – | – |
| N[C@@H](c1ccc(Cl)c(C(=O)c2ccc(F)cc2)c1F)C1CC1 [Example 27, (R)-{4-chloro-2-fluoro-3-[(4-fluorophenyl)carbonyl]phenyl}(cyclopropyl)methanamine] | 0.22 | < 1 | – |
| CC[C@@H](NCCF)c1ccc(Cl)c(C(=O)c2cccnc2)c1F [Example 290, [(1R)-1-{4-chloro-2-fluoro-3-[(pyridin-3-yl)carbonyl]phenyl}propyl] (2-fluoroethyl)amine] | 14 | – | IC50 [3]: < 30 µM |
| CC[C@@H](N)c1ccc(OC)c(C(=O)c2ccc(F)cc2)c1F [Example 191, (1R)-1-{2-fluoro-3-[(4-fluorophenyl)carbonyl]-4-methoxyphenyl}-propan-1-amine] | 1.1 | 1 to 5 | – |
| CC[C@H](NCCO)c1ccc(Cl)c(C(=O)c2ccc(N)nc2)c1F [Example 173, 2-{[(1S)-1-{3-[(6-aminopyridin-3-yl)carbonyl]-4-chloro-2-fluorophenyl}propyl]-amino}ethan-1-ol] | 0.13 | < 1 | – |
